ChEMBL document CHEMBL1151193, “Ancistrotanzanine C and related 5,1'- and 7,3'-coupled naphthylisoquinoline alkaloids from Ancistrocladus tanzaniensis” (J Nat Prod, 2004)
Converted amounts (≈) assume the structure as drawn.

tested on: Leishmania donovani; experiment: Antileishmanial activity against Leishmania donovani; format: functional, organism-based; conditions: not given

Row | Compound | IC50 [µg/mL]
1 | COc1cc(OC)c(-c2c(C)cc(OC)c3c(OC)cccc23)c2c1C(C)=N[C@@H](C)C2 | 30 (≈ 71.5 µM)
2 | COc1cc2c(c(OC)c1-c1c(C)cc3cccc(OC)c3c1O)C(C)=N[C@@H](C)C2 [ANCISTROCLADIDINE] | 2.9 (≈ 7.15 µM)

tested on: Trypanosoma cruzi; experiment: Antitrypanosomal activity against Trypanosoma cruzi; format: functional, organism-based; conditions: not given

Row | Compound | IC50 [µg/mL]
3 | COc1cc(OC)c(-c2c(C)cc(OC)c3c(OC)cccc23)c2c1C(C)=N[C@@H](C)C2 | 60.5 (≈ 144 µM)
4 | COc1cc2c(c(OC)c1-c1c(C)cc3cccc(OC)c3c1O)C(C)=N[C@@H](C)C2 [ANCISTROCLADIDINE] | 23.4 (≈ 57.7 µM)
5 | COc1c(-c2c(C)cc3cccc(OC)c3c2O)c(O)cc2c1[C@@H](C)N(C)[C@@H](C)C2 [ANCISTROTANZANINE C] | 14 (≈ 34.4 µM)
6 | COc1cc2c(c(OC)c1-c1c(C)cc3cccc(OC)c3c1O)[C@@H](C)N(C)[C@@H](C)C2 [ANCISTROTECTORINE] | 4.3 (≈ 10.2 µM)
7 | O=C(Cn1ccnc1[N+](=O)[O-])NCc1ccccc1 [BENZNIDAZOLE] | 0.29 (≈ 1.11 µM)
8 | COc1cc(OC)c2c(c1-c1c(C)cc(OC)c3c(OC)cccc13)C[C@H](C)N(C)[C@H]2C [O,N-Dimethylancistrocladine] | 65.3 (≈ 150 µM)

tested on: L6; experiment: Cytotoxicity against Leishmania donovani infected rat L6 cells; format: cell-based; conditions: not given

Row | Compound | Activity
9 | COc1c(-c2c(C)cc3cccc(OC)c3c2O)c(O)cc2c1[C@@H](C)N(C)[C@@H](C)C2 [ANCISTROTANZANINE C] | Toxic
10 | COc1cc2c(c(OC)c1-c1c(C)cc3cccc(OC)c3c1O)[C@@H](C)N(C)[C@@H](C)C2 [ANCISTROTECTORINE] | Toxic
11 | COc1cc(OC)c2c(c1-c1c(C)cc(OC)c3c(OC)cccc13)C[C@H](C)N(C)[C@H]2C [O,N-Dimethylancistrocladine] | Toxic

tested on: not listed separately; experiment: Cytotoxicity against rat L6 cells; format: cell-based; conditions: read-out: MIC

Row | Compound | MCC [µg/mL]
12 | COc1cc(OC)c(-c2c(C)cc(OC)c3c(OC)cccc23)c2c1C(C)=N[C@@H](C)C2 | > 90
13 | COc1cc2c(c(OC)c1-c1c(C)cc3cccc(OC)c3c1O)C(C)=N[C@@H](C)C2 [ANCISTROCLADIDINE] | 28.3
14 | COc1c(-c2c(C)cc3cccc(OC)c3c2O)c(O)cc2c1[C@@H](C)N(C)[C@@H](C)C2 [ANCISTROTANZANINE C] | 40.7
15 | COc1cc2c(c(OC)c1-c1c(C)cc3cccc(OC)c3c1O)[C@@H](C)N(C)[C@@H](C)C2 [ANCISTROTECTORINE] | 19.9
16 | COc1cc(OC)c2c(c1-c1c(C)cc(OC)c3c(OC)cccc13)C[C@H](C)N(C)[C@H]2C [O,N-Dimethylancistrocladine] | 42.9

tested on: Trypanosoma brucei rhodesiense; experiment: Antitrypanosomal activity against Trypanosoma brucei rhodesiense; format: functional, organism-based; conditions: not given

Row | Compound | IC50 [µg/mL]
17 | COc1cc(OC)c(-c2c(C)cc(OC)c3c(OC)cccc23)c2c1C(C)=N[C@@H](C)C2 | 5.2 (≈ 12.4 µM)
18 | COc1cc2c(c(OC)c1-c1c(C)cc3cccc(OC)c3c1O)C(C)=N[C@@H](C)C2 [ANCISTROCLADIDINE] | 2 (≈ 4.93 µM)
19 | COc1c(-c2c(C)cc3cccc(OC)c3c2O)c(O)cc2c1[C@@H](C)N(C)[C@@H](C)C2 [ANCISTROTANZANINE C] | 1.3 (≈ 3.19 µM)
20 | COc1cc2c(c(OC)c1-c1c(C)cc3cccc(OC)c3c1O)[C@@H](C)N(C)[C@@H](C)C2 [ANCISTROTECTORINE] | 4.3 (≈ 10.2 µM)
21 | Nc1nc(N)nc(Nc2ccc([As]3SCC(CO)S3)cc2)n1 (configuration not stated) [MELARSOPROL] | 0.0031
22 | COc1cc(OC)c2c(c1-c1c(C)cc(OC)c3c(OC)cccc13)C[C@H](C)N(C)[C@H]2C [O,N-Dimethylancistrocladine] | 5.4 (≈ 12.4 µM)

tested on: Plasmodium falciparum; experiment: Antiplasmodial activity against chloroquine-sensitive Plasmodium falciparum 3D7; format: functional, organism-based; conditions: not given

Row | Compound | IC50 [µg/mL]
23 | COc1cc(OC)c(-c2c(C)cc(OC)c3c(OC)cccc23)c2c1C(C)=N[C@@H](C)C2 | 5.4 (≈ 12.9 µM)
24 | COc1cc2c(c(OC)c1-c1c(C)cc3cccc(OC)c3c1O)C(C)=N[C@@H](C)C2 [ANCISTROCLADIDINE] | 1.9 (≈ 4.69 µM)
25 | COc1c(-c2c(C)cc3cccc(OC)c3c2O)c(O)cc2c1[C@@H](C)N(C)[C@@H](C)C2 [ANCISTROTANZANINE C] | 4.2 (≈ 10.3 µM)
26 | COc1cc2c(c(OC)c1-c1c(C)cc3cccc(OC)c3c1O)[C@@H](C)N(C)[C@@H](C)C2 [ANCISTROTECTORINE] | 9.1 (≈ 21.6 µM)
27 | COc1cc(OC)c2c(c1-c1c(C)cc(OC)c3c(OC)cccc13)C[C@H](C)N(C)[C@H]2C [O,N-Dimethylancistrocladine] | 34.1 (≈ 78.3 µM)

tested on: Plasmodium falciparum; experiment: Antiplasmodial activity against chloroquine-resistant Plasmodium falciparum K1; format: functional, organism-based; conditions: not given

Row | Compound | IC50 [µg/mL]
28 | COc1cc(OC)c(-c2c(C)cc(OC)c3c(OC)cccc23)c2c1C(C)=N[C@@H](C)C2 | 2.2 (≈ 5.24 µM)
29 | COc1cc2c(c(OC)c1-c1c(C)cc3cccc(OC)c3c1O)C(C)=N[C@@H](C)C2 [ANCISTROCLADIDINE] | 0.3 (≈ 0.74 µM)
30 | COc1c(-c2c(C)cc3cccc(OC)c3c2O)c(O)cc2c1[C@@H](C)N(C)[C@@H](C)C2 [ANCISTROTANZANINE C] | 0.1 (≈ 0.245 µM)
31 | COc1cc2c(c(OC)c1-c1c(C)cc3cccc(OC)c3c1O)[C@@H](C)N(C)[C@@H](C)C2 [ANCISTROTECTORINE] | 0.7 (≈ 1.66 µM)
32 | COc1cc(OC)c2c(c1-c1c(C)cc(OC)c3c(OC)cccc13)C[C@H](C)N(C)[C@H]2C [O,N-Dimethylancistrocladine] | 3.6 (≈ 8.27 µM)
